# “Also recorded” adds a separate entry of the source. Like-named read-outs stand apart in the source and are kept apart here.
# Legend:
# wild-type CHO cells = experiment: MTT cytotoxicity assay in wild-type CHO cells; type: cell-based, Chinese hamster; conditions: wild-type CHO, lower MPP+ concentrations
# Description: Differential susceptibility to the respiratory complex I inhibitors MPP^+ and rotenone was shown by measuring toxicity by measuring general cell dehydrogenase activity with reduction of a tetrazolium dye (MTT) in a spectrophotometric plate assay as described by Hansen et al., J. Immunol. Methods 119:203-210 (1989). Briefly, a stock solution of MTT (3,(4,5-dimethylthiazol-2-yl)2,5-diphenyltetrazolium bromide) was dissolved at a concentration of 5 mg/ml in sterile phosphate buffered saline at room temperature. To each well was added 25 μl of the stock solution. After two hours of incubation at 37° C., 100 μl of extraction buffer (20% w/v of SDS in a solution of 50% each dimethylformamide and demineralized water with the pH adjusted to 4.7 with acetic acid and HCl). After an overnight incubation at 37° C., the optical densities at 570 nm were measured using a multiscanner, employing the extraction buffer as the blank. This assay was carried out in triplicate on 96-well plates (NUNC, Denmark). MPP^+ and rotenone at the concentrations indicated in FIG. 6a and 6b, respectively, was added to wild-type and MPP^+ -resistant CHO cells at approximately 50% confluence, and toxicity was assayed after 2-3 days by measuring general cell dehydrogenase activity with the reduction of the tetrazolium dye MTT (3,(4,5-dimethylthiazol-2-yl)2,5-diphenyl-tetrazolium bromide). After addition of the dye at a final concentration of 1 mg/ml, the cells were incubated for two hours at 37° C. and the formazan product was solubilized in 10% sodium dodecyl sulfate (SDS). The plates were maintained at 37° C. for an additional twenty hours and the optical density was determined in an ELISA plate reader at a test wavelength of 570 nm, a reference wavelength of 630 nm and a calibration setting of 1.99. All determinations were performed in triplicate and expressed as the mean, with the error bars representing standard deviation (FIG. 6a and 6b).
# [1] = tested on: amines and tyrosine hydroxylase; conditions: cited from earlier work
# transfected CHO cells = experiment: Survival/selection/growth of transfected CHO cells in MPP+; type: cell-based, Chinese hamster; conditions: reserpine concentration not stated
# Description: Using the above methods, the PC12 cDNA library constructed in the plasmid expression vector CDM8 was transfected into CHO cells. Using the selectable marker RSV- neo (Walker, Weizmann Institute, Israel), […] independent stable transformants were obtained after selection in the neomycin analogue G418 at 400 μg/ml effective dose. These cells were then selected at 40% confluence in 1 mM MPP^+. […] However, at four weeks, a colony of cells without refractile inclusions appeared and rapidly covered the plate. The apparently normal growth of these cells in the presence of 1 mM MPP^+ stands in marked contrast to all of the resistant clones obtained without transfection, which grew very slowly if at all. […] However, at 1 mM MPP^+, the resistant cells did show some toxicity, particularly when the assay was performed at higher cell density.
# To identify the cDNA sequences responsible for conferring resistance to MPP^+, integrated plasmids were rescued from the primary CHO transformant obtained as described above in Example 1. […] The primary MPP^+ -resistant CHO transformant was amplified in culture and following cell lysis in 5M guanidinium isothiocyanate, the high molecular weight DNA prepared by repeated precipitation in isopropanol. After digestion with Not I, which cleaves the CDM8 vector once downstream of the cDNA insertion site as well as at rare eight-nucleotide recognition sites elsewhere in the genome, the DNA was religated and transformed into E. coli by electroporation as described by Stern-Bach et al., J. Biol. Chem. 265:3961-3966 (1990). Four pools of the derived plasmids containing approximately 50 colonies each were transfected into CHO cells and after two days were selected in 1 mM MPP^+. Four weeks later, one pool gave rise to several MPP^+ -resistant colonies, two pools gave rise to 1-2 colonies and the fourth pool and CDM8 vector gave rise to no healthy, resistant colonies. Restriction enzyme analysis of the plasmids in the pool conferring the highest frequency of resistance to MPP^+ indicated three independent clones of 1.0, 1.3 and 2.5 kb. […]
# [2] = tested on: vesicular amine transport protein; conditions: cited from earlier work
# [3] = target: T1, chromaffin granule amine transport protein (Rattus norvegicus, UniProt Q01818); experiment: Quantitative [3H]dopamine transport assay with mpp^res CHO cell homogenate; type: biochemical; conditions: dose-response, 2-minute incubation (FIG. 15C)
# T1 sequence (Q01818 1-521): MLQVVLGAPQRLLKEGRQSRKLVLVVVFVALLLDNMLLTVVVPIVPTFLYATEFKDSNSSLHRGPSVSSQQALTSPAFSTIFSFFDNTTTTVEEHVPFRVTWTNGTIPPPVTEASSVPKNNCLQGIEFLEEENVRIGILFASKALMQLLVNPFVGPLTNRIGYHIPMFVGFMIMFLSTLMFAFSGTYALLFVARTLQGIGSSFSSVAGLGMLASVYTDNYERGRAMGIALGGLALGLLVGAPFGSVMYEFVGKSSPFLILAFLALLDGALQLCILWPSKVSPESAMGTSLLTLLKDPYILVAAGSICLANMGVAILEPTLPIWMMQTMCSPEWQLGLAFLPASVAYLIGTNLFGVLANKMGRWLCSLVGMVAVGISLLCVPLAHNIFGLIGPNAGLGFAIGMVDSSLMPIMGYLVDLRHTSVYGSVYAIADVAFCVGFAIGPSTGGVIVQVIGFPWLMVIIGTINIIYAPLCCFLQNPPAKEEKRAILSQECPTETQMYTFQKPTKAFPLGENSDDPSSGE
# Description: The quantity of label bound is measured after filtration of the assay mixture. Preferably, the label is a radioactive label. […] This can be done by standard graphic kinetic techniques such as the Lineweaver-Burke plot.
# Incubation was performed at 29° C. for the time period indicated (from 2 minutes to 30 minutes). The assay was terminated by dilution in cold assay buffer followed by filtration through 0.2 μm Supor™ 200 membranes (Gelman, Ann Arbor, Mich.) and the bound radioactivity was measured. The cells used for the quantitative assay are selected in MPP^+ or screened with antibody to ensure that they express the transporter at high levels, as it is difficult to measure activity in this assay at low levels of transporter expression.
# The quantitative transport test was performed as described above on wild-type CHO cells and mpp^res CHO cells.
# PC12 cells = experiment: cells; conditions: Rattus norvegicus, PC-12, 1 h, read-out: [^3 H]-Dopamine Uptake (PC12)
# Description: The effects of various pharmacologic agents were tested to determine whether the properties of the protein encoded by the mpp^res cDNA corresponded with those expected for the chromaffin granule amine transport protein. […] The cells were pre-incubated in Krebs-Ringer buffer containing 1 μM pargyline and the dose of the drug indicated for 15 minutes. […] Values were determined from three separate wells and the mean was expressed as percent of control uptake±standard deviation.
# [4] = tested on: bacterial BMR transporter; conditions: cited from earlier work
smiles,measurement,setting,value
COC(=O)[C@H]1[C@H]2C[C@@H]3c4[nH]c5cc(OC)ccc5c4CCN3C[C@H]2C[C@@H](OC(=O)c2cc(OC)c(OC)c(OC)c2)[C@@H]1OC [reserpine],effect on MPP+ toxicity in wild-type cells,wild-type CHO cells,very little reproducible effect
same,potentiation of amine depletion and reduction in tyrosine hydroxylase by MPP+,[1],can potentiate the depletion of amines and reduction in tyrosine hydroxylase by MPP^+
same,reversal of MPP+ resistance of transformants,transfected CHO cells,reversal of MPP^+ resistance; also recorded: reversible; also recorded: reversed
same,inhibition of vesicular amine transport,[2],inhibits
same,inhibition of vesicular amine transport,[2]; listed as Reserpine,inhibit this transport activity
same,inhibition of dopamine transport,[3],inhibition by both reserpine and tetrabenazine
same,activity at 1 µM,PC12 cells,23 ± 2%
same,inhibition of bacterial BMR transporter,[4],inhibits
